Target: T1, human OX2R (Homo sapiens, UniProt O43614)
T1 construct: expressed in transfected cells; host or cells: CHO (Chinese hamster ovary) cells grown under G418 selection
T1 sequence (O43614 1-444): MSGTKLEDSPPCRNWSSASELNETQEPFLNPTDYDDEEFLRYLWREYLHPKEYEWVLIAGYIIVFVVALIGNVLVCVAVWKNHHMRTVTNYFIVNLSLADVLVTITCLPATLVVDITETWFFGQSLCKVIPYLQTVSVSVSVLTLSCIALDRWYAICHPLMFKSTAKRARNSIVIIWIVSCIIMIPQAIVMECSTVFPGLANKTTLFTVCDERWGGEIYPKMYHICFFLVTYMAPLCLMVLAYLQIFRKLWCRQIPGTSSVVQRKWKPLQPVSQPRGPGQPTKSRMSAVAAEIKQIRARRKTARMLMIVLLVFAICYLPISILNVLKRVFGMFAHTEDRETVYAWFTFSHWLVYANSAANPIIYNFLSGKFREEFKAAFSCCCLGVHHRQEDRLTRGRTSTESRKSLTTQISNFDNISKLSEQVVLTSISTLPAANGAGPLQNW
Assay: IPOne (IP-1 accumulation) assay in CHO cells expressing human OX2R
Format: cell-based
Conditions: for EC50: CHO cells expressing human OX2R, IP-One assay, 2 h incubation, four parameter logistic fit, read-out: OX2R Potency, EC50; for % of maximum agonist effect (relative to Orexin A): percent effect vs mean max effect of a reference compound at 1 uM (100% activity vs Orexin A), human OX2R
Method in brief: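 Agonist EC50 values come from the inflection point of four-parameter logistic curves. Read-out is IP-1 accumulation detected with lysis buffer plus D2 and AB-cryptate reagents (HTRF), in CHO cells engineered to express human OX2R.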

SMILES: CCN(C(=O)NC(C#N)c1cccc(C(F)(F)F)c1)[C@H](C)c1cccc(-c2cn3ccnc3c(OC)n2)c1 (stereo partly drawn) [Example 1-12, 3-(cyano(3-(trifluoromethyl)phenyl)methyl)-1-ethyl-1-((R)-1-(3-(8-methoxyimidazo[1,2-a]pyrazin-6-yl)phenyl)ethyl)urea]
- EC50: 19.8 nM
- % of maximum agonist effect (relative to Orexin A): 99.1%

SMILES: CCN(C(=O)NC(CCC1CC1)C(F)(F)F)[C@H](C)c1cccc(-c2cn3ccnc3c(OC)n2)c1 (stereo partly drawn) [Example 3-6, 3-(4-cyclopropyl-1,1,1-trifluorobutan-2-yl)-1-ethyl-1-((R)-1-(3-(8-methoxyimidazo[1,2-a]pyrazin-6-yl)phenyl)ethyl)urea]
- EC50: 2.6 nM
- % of maximum agonist effect (relative to Orexin A): 99.7%

SMILES: CCN(C(=O)NC(COC(C)=O)C(F)(F)F)[C@H](C)c1cccc(-c2cn3ccnc3c(OC)n2)c1 (stereo partly drawn) [Example 22, 2-(3-ethyl-3-((R)-1-(3-(8-methoxyimidazo[1,2-a]pyrazin-6-yl)phenylethyl)ureido)-3,3,3-trifluoropropyl acetate]
- EC50: 25.3 nM
- % of maximum agonist effect (relative to Orexin A): 97.0%

SMILES: CCN(C(=O)NC(CCC(F)(F)F)C(C)(F)F)[C@H](C)c1cccc(-c2cn3ccnc3c(OC)n2)c1 (stereo partly drawn) [Example 2-55, 1-ethyl-1-((R)-1-(3-(8-methoxyimidazo[1,2-a]pyrazin-6-yl)phenyl)ethyl)-3-(2,2,6,6,6-pentafluorohexan-3-yl)urea]
- EC50: 129 nM
- % of maximum agonist effect (relative to Orexin A): 99.4%

SMILES: CCN(C(=O)NC1CC(CC(F)(F)F)C1)[C@@H](c1cc(-c2cn3ccnc3c(OC)n2)c(OC)cn1)C(F)(F)F (stereo partly drawn) [Example 2-30, (S)-1-ethyl-1-(2,2,2-trifluoro-1-(5-methoxy-4-(8-methoxyimidazo[1,2-a]pyrazin-6-yl)pyridin-2-yl)ethyl)-3-(3-(2,2,2-trifluoroethyl)cyclobutyl)urea]
- EC50: 34.6 nM
- % of maximum agonist effect (relative to Orexin A): 99.0%

SMILES: CCN(C(=O)NC(C#N)C1CCCC1)[C@H](C)c1cccc(-c2cn3ccnc3c(OC)n2)c1 (stereo partly drawn) [Example 1-10, 3-(cyano(cyclopentyl)methyl)-1-ethyl-1-((R)-1-(3-(8-methoxyimidazo[1,2-a]pyrazin-6-yl)phenyl)ethyl)urea]
- EC50: 8.3 nM
- % of maximum agonist effect (relative to Orexin A): 101.0%

SMILES: CCN(C(=O)N[C@@H](CCS(C)(=O)=O)C(F)(F)F)[C@@H](c1cc(-c2cn3ccnc3c(OC)n2)c(OC)cn1)C(F)(F)F [Example 2-36, 1-ethyl-1-((S)-2,2,2-trifluoro-1-(5-methoxy-4-(8-methoxyimidazo[1,2-a]pyrazin-6-yl)pyridin-2-yl)ethyl)-3-((S)-1,1,1-trifluoro-4-(methylsulfonyl)butan-2-yl)urea]
- EC50: 0.7 nM
- % of maximum agonist effect (relative to Orexin A): 100.5%

SMILES: CCN(C(=O)N[C@@H](CCC(F)(F)F)C(F)(F)F)C(c1ccc(OC)c(-c2cn3ccnc3c(OC)n2)n1)C(F)(F)F (stereo partly drawn) [Example 10-20, 1-ethyl-3-((S)-1,1,1,5,5,5-hexafluoropentan-2-yl)-1-(2,2,2-trifluoro-1-(5-methoxy-6-(8-methoxyimidazo[1,2-a]pyrazin-6-yl)pyridin-2-yl)ethyl)urea]
- EC50: 0.7 nM
- % of maximum agonist effect (relative to Orexin A): 101.0%

SMILES: CCN(C(=O)N[C@@H](CCC(F)(F)F)C(F)(F)F)[C@H](C)c1cccc(-c2cc(OC)c3ncc(Cl)n3c2)c1 [Example 8-9, 1-((R)-1-(3-(3-chloro-8-methoxyimidazo[1,2-a]pyridin-6-yl)phenyl)ethyl)-1-ethyl-3-((S)-1,1,1,5,5,5-hexafluoropentan-2-yl)urea]
- EC50: 0.7 nM
- % of maximum agonist effect (relative to Orexin A): 99.7%

SMILES: CCN(C(=O)NC(C)(C)C#N)[C@H](C)c1cccc(-c2cn3ccnc3c(OC)n2)c1 [Example 2-25, (R)-3-(2-cyanopropan-2-yl)-1-ethyl-1-(1-(3-(8-methoxyimidazo[1,2-a]pyrazin-6-yl)phenyl)ethyl)urea]
- EC50: 360 nM
- % of maximum agonist effect (relative to Orexin A): 98.0%

SMILES: CCN(C(=O)NCC(N(C)C)C(F)(F)F)[C@H](C)c1cccc(-c2cc(OC)c3nccn3c2)c1 (stereo partly drawn) [Example 1-7, 3-(2-(dimethylamino)-3,3,3-trifluoropropyl)-1-ethyl-1-((R)-1-(3-(8-methoxyimidazo[1,2-a]pyridin-6-yl)phenyl)ethyl)urea]
- EC50: 17.5 nM
- % of maximum agonist effect (relative to Orexin A): 97.3%

SMILES: CCN(C(=O)N[C@@H](CCC(F)(F)F)C(F)(F)F)C(c1cnc(OC)c(-c2cn3ccnc3c(OC)n2)n1)C(F)(F)F (stereo partly drawn) [Example 10-5, 1-ethyl-3-((S)-1,1,1,5,5,5-hexafluoropentan-2-yl)-1-(2,2,2-trifluoro-1-(5-methoxy-6-(8-methoxyimidazo[1,2-a]pyrazin-6-yl)pyrazin-2-yl)ethyl)urea]
- EC50: 2.5 nM
- % of maximum agonist effect (relative to Orexin A): 101.6%

SMILES: CCN(C(=O)NC(C)C)[C@@H](c1cc(-c2cn3ccnc3c(OC)n2)c(OC)cn1)C(F)(F)F [Example 2-29, (S)-1-ethyl-3-isopropyl-1-(2,2,2-trifluoro-1-(5-methoxy-4-(8-methoxyimidazo[1,2-a]pyrazin-6-yl)pyridin-2-yl)ethyl)urea]
- EC50: 23.8 nM
- % of maximum agonist effect (relative to Orexin A): 96.0%

SMILES: CCN(C(=O)N[C@@H](CCC(F)=C(F)F)C(F)(F)F)[C@@H](c1cc(-c2cn3cc(C)nc3c(OC)n2)c(OC)cn1)C(F)(F)F [Example 3-4, 1-ethyl-3-((S)-1,1,1,5,6,6-hexafluorohex-5-en-2-yl)-1-((S)-2,2,2-trifluoro-1-(5-methoxy-4-(8-methoxy-2-methylimidazo[1,2-a]pyrazin-6-yl)pyridin-2-yl)ethyl)urea]
- EC50: 27.8 nM
- % of maximum agonist effect (relative to Orexin A): 100.5%

SMILES: CCC(CCC(F)(F)F)NC(=O)N(CC)[C@H](C)c1cccc(-c2cn3ccnc3cc2OC)c1 (stereo partly drawn) [Example 7-2, 1-ethyl-1-((R)-1-(3-(7-methoxyimidazo[1,2-a]pyridin-6-yl)phenyl)ethyl)-3-(6,6,6-trifluorohexan-3-yl)urea]
- EC50: 396 nM
- % of maximum agonist effect (relative to Orexin A): 100.4%

SMILES: CCN(C(=O)NC(C1CN(C)C1)C(F)(F)F)[C@H](C)c1cccc(-c2cn3ccnc3c(OC)n2)c1 (stereo partly drawn) [Example 1-15, 1-ethyl-1-((R)-1-(3-(8-methoxyimidazo[1,2-a]pyrazin-6-yl)phenyl)ethyl)-3-(2,2,2-trifluoro-1-(1-methylazetidin-3-yl)ethyl)urea]
- EC50: 271 nM
- % of maximum agonist effect (relative to Orexin A): 99.7%

SMILES: CC[C@H](CCC(F)(F)F)NC(=O)N(CC)[C@H](C)c1cccc(-c2cn3ccnc3c(SC)n2)c1 [Example 8-1, 1-ethyl-1-((R)-1-(3-(8-(methylthio)imidazo[1,2-a]pyrazin-6-yl)phenyl)ethyl)-3-((R)-6,6,6-trifluorohexan-3-yl)urea]
- EC50: 211 nM
- % of maximum agonist effect (relative to Orexin A): 96.1%

SMILES: CCN(C(=O)NC[C@H]1COCC(=O)N1)[C@H](C)c1cccc(-c2cn3ccnc3c(OC)n2)c1 [Example 1-6, 1-ethyl-1-((R)-1-(3-(8-methoxyimidazo[1,2-a]pyrazin-6-yl)phenyl)ethyl)-3-(((S)-5-oxomorpholin-3-yl)methyl)urea]
- EC50: 193 nM
- % of maximum agonist effect (relative to Orexin A): 99.0%

SMILES: CCN(C(=O)N[C@@H](CCC(F)F)C1CC1)[C@@H](c1cc(-c2cn3cc(C)nc3c(OC)n2)c(OC)cn1)C(F)(F)F [Example 6-7, 3-((S)-1-cyclopropyl-4,4-difluorobutyl)-1-ethyl-1-((S)-2,2,2-trifluoro-1-(5-methoxy-4-(8-methoxy-2-methylimidazo[1,2-a]pyrazin-6-yl)pyridin-2-yl)ethyl)urea]
- EC50: 8.5 nM
- % of maximum agonist effect (relative to Orexin A): 100.9%

SMILES: CC[C@H](CCC(F)(F)F)NC(=O)N(CC)C(C)(C)c1cccc(-c2ccc3nccn3c2)c1 [Example 18, (R)-1-ethyl-1-(2-(3-(imidazo[1,2-a]pyridin-6-yl)phenyl)propan-2-yl)-3-(6,6,6-trifluorohexan-3-yl)urea]
- EC50: 126 nM
- % of maximum agonist effect (relative to Orexin A): 99.6%

SMILES: CCN(C(=O)NC(C1CCCOC1)C(F)(F)F)[C@@H](c1cc(-c2cn3cc(C)nc3c(OC)n2)c(OC)cn1)C(F)(F)F (stereo partly drawn) [Example 2-47, 1-ethyl-1-((S)-2,2,2-trifluoro-1-(5-methoxy-4-(8-methoxy-2-methylimidazo[1,2-a]pyrazin-6-yl)pyridin-2-yl)ethyl)-3-(2,2,2-trifluoro-1-(tetrahydro-2H-pyran-3-yl)ethyl)urea]
- EC50: 16.7 nM
- % of maximum agonist effect (relative to Orexin A): 100.7%

SMILES: CCN(C(=O)N[C@@H](CCC(F)(F)F)C(F)(F)F)[C@H](C)c1cccc(-c2ccc3ncc(N)n3c2)c1 [Example 8-12, 1-((R)-1-(3-(3-aminoimidazo[1,2-a]pyridin-6-yl)phenyl)ethyl)-1-ethyl-3-((S)-1,1,1,5,5,5-hexafluoropentan-2-yl)urea]
- EC50: 17.4 nM
- % of maximum agonist effect (relative to Orexin A): 96.7%

SMILES: CCN(C(=O)N[C@@H](CCC(F)(F)F)C(F)(F)F)[C@H](C)c1cnc(O)c(-c2cc(OC)n3nccc3c2)c1 [Example 30, 1-ethyl-3-((S)-1,1,1,5,5,5-hexafluoropentan-2-yl)-1-((R)-1-(6-hydroxy-5-(7-methoxypyrazolo[1,5-a]pyridin-5-yl)pyridin-3-yl)ethyl)urea]
- EC50: 4730 nM
- % of maximum agonist effect (relative to Orexin A): 97.0%

From US12692262B2, “Substituted ureas as orexin receptor agonists” (Merck Sharp & Dohme LLC, priority 2020, dated 2026)
